Patent publication US12624034B2, “Non-covalent modifiers of AKT1 and uses thereof” (Terremoto Biosciences, Inc., priority 2023, dated 2026)
Read-outs that look alike come from different tables or passages of the source.

Legend:
AKT2 = target: T1, AKT2 (Homo sapiens, UniProt P31751); assay: Live cell AKT2 target engagement by NanoBRET competitive probe displacement in HEK293 cells; type: binding; conditions: 2 h at 37° C., read-out: AKT2 IC50
T1 construct: expressed in transfected cells; host or cells: HEK293
T1 sequence (P31751 whole entry): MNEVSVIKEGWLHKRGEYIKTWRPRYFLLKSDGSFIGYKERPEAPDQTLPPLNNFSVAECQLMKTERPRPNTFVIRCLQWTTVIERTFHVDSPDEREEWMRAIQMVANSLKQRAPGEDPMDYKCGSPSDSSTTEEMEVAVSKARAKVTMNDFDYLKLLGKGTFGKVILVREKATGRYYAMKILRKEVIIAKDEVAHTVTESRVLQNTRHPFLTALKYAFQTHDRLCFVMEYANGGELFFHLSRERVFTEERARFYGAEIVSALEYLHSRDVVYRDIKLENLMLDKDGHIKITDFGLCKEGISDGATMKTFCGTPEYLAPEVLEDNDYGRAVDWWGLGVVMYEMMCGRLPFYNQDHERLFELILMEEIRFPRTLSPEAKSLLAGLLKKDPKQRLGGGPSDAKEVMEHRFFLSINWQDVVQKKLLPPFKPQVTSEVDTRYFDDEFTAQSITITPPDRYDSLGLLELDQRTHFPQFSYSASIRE

AKT1 WT = target: T2, AKT1 WT (Homo sapiens, UniProt P31749); assay: Live cell AKT1 WT target engagement by NanoBRET competitive probe displacement in HEK293 cells; type: binding; conditions: 2 h at 37° C., read-out: AKT1 WT IC50
T2 construct: expressed in transfected cells; host or cells: HEK293
T2 sequence (P31749 whole entry): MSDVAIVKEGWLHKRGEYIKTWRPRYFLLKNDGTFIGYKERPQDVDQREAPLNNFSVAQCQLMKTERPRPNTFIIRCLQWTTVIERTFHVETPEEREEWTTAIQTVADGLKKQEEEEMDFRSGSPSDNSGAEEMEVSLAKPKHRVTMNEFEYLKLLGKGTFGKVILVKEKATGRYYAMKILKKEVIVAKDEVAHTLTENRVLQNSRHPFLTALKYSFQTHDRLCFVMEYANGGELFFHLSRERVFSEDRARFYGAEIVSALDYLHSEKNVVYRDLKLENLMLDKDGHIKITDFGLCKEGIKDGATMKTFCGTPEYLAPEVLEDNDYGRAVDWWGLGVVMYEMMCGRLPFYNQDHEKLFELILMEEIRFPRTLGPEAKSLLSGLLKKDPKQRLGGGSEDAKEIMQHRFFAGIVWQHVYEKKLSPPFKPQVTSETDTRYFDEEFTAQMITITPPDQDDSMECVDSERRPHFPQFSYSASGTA

[1] = NanoBRET competitive probe displacement, live HEK293 cells
[2] = NanoBRET live cell target engagement, HEK293 cells

SMILES	IC50 (AKT2; [1]) [nM]	IC50 (AKT1 WT; [1]) [nM]	IC50 (AKT2; [2]) [nM]	IC50 (AKT1 WT; [2]) [nM]
Nc1ncccc1-c1nc2ccc(-n3cccn3)nc2n1-c1ccc2c(c1)CC[C@@H]2NC1CCN(C(=O)C2CC2)CC1F (stereo partly shown) [Compound 444]	499	23.5		
N[C@H]1CCc2cc(-n3c(-c4ccccc4F)nc4ccc(-n5cccn5)nc43)ccc21 [Compound 527]	1150	19.5		
Nc1ncccc1-c1nc2ccc(-n3cccn3)nc2n1-c1ccc2c(c1)CC[C@@H]2n1cnnc1 [Compound 248, (S)-3-(3-(1-(4H-1,2,4-triazol-4-yl)-2,3-dihydro-1H-inden-5-yl)-5-(1H-pyrazol-1-yl)-3H-imidazo[4,5-b]pyridin-2-yl)pyridin-2-amine]			107	20.2
Cc1ncccc1C(=O)N[C@H]1CCc2cc(-n3c(-c4cccnc4N)nc4c(C#N)cc(-n5cccn5)nc43)ccc21 [Compound 125]			201	13.3
Nc1ncccc1-c1nc2ccc(-n3ccc(NC4CC4)n3)nc2n1-c1ccc2c(c1)CC[C@@H]2NC1CCN(C(=O)C2CC2)CC1 [Compound 599]	1280	25.4		
CS(=O)(=O)c1ccn(-c2ccc3nc(-c4cccnc4N)n(-c4ccc5c(c4)CC[C@@H]5NC4CCN(C(=O)C5CC5)CC4)c3n2)n1 [Compound 554]	9260	339		
COc1cc2c(cn1)CCC2N[C@H]1CCc2cc(-n3c(-c4cccnc4N)nc4ccc(-n5cccn5)nc43)ccc21 (stereo partly shown) [Compound 510]	262	14.6		
Cc1ncccc1C(=O)N[C@H]1CCc2cc(-n3c(-c4cccnc4N)nc4ccc(-n5nccn5)nc43)ccc21 [Compound 93]			1790	38.8
Nc1ncccc1-c1nc2ccc(-n3cccn3)nc2n1-c1ccc2c(c1)CC[C@@H]2NC1CC2(CCCN2c2ccccn2)C1 (stereo partly shown) [Compound 465]	> 10000	> 1000		
Cc1nccnc1C(=O)N[C@H]1CCc2cc(-n3c(-c4cccnc4N)nc4ccc(-c5ccn(C(F)F)n5)nc43)ccc21 [Compound 301]			2050	189
Nc1ncccc1-c1nc2ccc(-n3cccn3)nc2n1-c1ccc2c(c1)CC[C@@H]2NC1CC2(CCN(c3ccccn3)CC2)C1 [Compound 449]	1200	79.7		
CN(C)Cc1cn([C@H]2CCc3cc(-n4c(-c5cccnc5N)nc5ccc(-n6cccn6)nc54)ccc32)nn1 [Compound 218]			4400	643
Nc1ncccc1-c1nc2ccc(-n3cccn3)nc2n1-c1ccc2c(c1)CC[C@@H]2NC1CCc2nc(C(F)F)sc21 (stereo partly shown) [Compound 601]	2500	102		
Nc1ncccc1-c1nc2ccc(-n3ccc(OC(F)F)n3)nc2n1-c1ccc2c(c1)CC[C@@H]2NC1[C@@H]2COC[C@H]1CN(C(=O)C1CC1)C2 (stereo partly shown) [Compound 561]	3090	93.3		
Nc1ncccc1-c1nc2ccc(-n3nccn3)nc2n1-c1ccc2c(c1)CC[C@@H]2NC(=O)c1cc(F)c2[nH]ncc2c1 [Compound 383]			214	12.8
Cc1ncccc1OCC1CCc2cc(-n3c(-c4cccnc4N)nc4ccc(-n5cccn5)nc43)ccc21 (single isomer, unassigned) [Compound 252, (*)-3-(3-(1-(((2-methylpyridin-3-yl)oxy)methyl)-2,3-dihydro-1H-inden-5-yl)-5-(1H-pyrazol-1-yl)-3H-imidazo[4,5-b]pyridin-2-yl)pyridin-2-amine]			2610	599
Nc1ncccc1-c1nc2ccc(-n3ccc(Oc4ccncc4)n3)nc2n1-c1ccc2c(c1)CC[C@@H]2NC1CCN(C(=O)C2CC2)CC1 [Compound 575]	3300	221		
COc1nccc2c1CCC2N[C@H]1CCc2cc(-n3c(-c4cccnc4N)nc4ccc(-n5cccn5)nc43)ccc21 (stereo partly shown) [Compound 509]	928	28.7		
Nc1ncccc1-c1nc2ccc(-n3cccn3)nc2n1-c1ccc2c(c1)CC[C@@H]2N1CCCCC1 [Compound 342, (S)-3-(3-(1-(piperidin-1-yl)-2,3-dihydro-1H-inden-5-yl)-5-(1H-pyrazol-1-yl)-3H-imidazo[4,5-b]pyridin-2-yl)pyridin-2-amine]			979	43.9

The next lines start with the values.

IC50 (AKT2; [1]) [nM]	IC50 (AKT1 WT; [1]) [nM]	IC50 (AKT2; [2]) [nM]	IC50 (AKT1 WT; [2]) [nM]	SMILES
		181	17.9	Nc1ncccc1-c1nc2ccc(-n3cccn3)nc2n1-c1ccc2c(c1)CC[C@@H]2NC(=O)c1ccc2cccn2c1 [Compound 328]
		1340	76.2	Nc1ncccc1-c1nc2ccc(-n3cccn3)nc2n1-c1ccc2c(c1)CC[C@@H]2NC(=O)Nc1ccccc1 [Compound 133]
		366	22.8	Cc1ncc(C(=O)N[C@H]2CCc3cc(-n4c(-c5cccnc5N)nc5ccc(-n6cccn6)nc54)ccc32)c(C(F)F)n1 [Compound 151, (S)—N-(5-(2-(2-aminopyridin-3-yl)-5-(1H-pyrazol-1-yl)-3H-imidazo[4,5-b]pyridin-3-yl)-2,3-dihydro-1H-inden-1-yl)-4-(difluoromethyl)-2-methylpyrimidine-5-carboxamide]
		28.1	7.29	Nc1ncccc1-c1nc2ccc(-n3cccn3)nc2n1-c1ccc2c(c1)CC[C@@H]2NC(=O)c1ccc2ncnn2c1 [Compound 237]
		31.5	5.88	COc1cccc(C(=O)N[C@H]2CCc3cc(-n4c(-c5cccnc5N)nc5ccc(-n6cccn6)nc54)ccc32)c1 [Compound 335]
		29.4	5.59	Nc1ncccc1-c1nc2ccc(-n3cccn3)nc2n1-c1ccc2c(c1)CC[C@@H]2NC(=O)c1ccnc(OC(F)F)c1 [Compound 202]
		284	13.5	Nc1ncccc1-c1nc2ccc(-n3cccn3)nc2n1-c1ccc2c(c1)CC[C@@H]2NC(=O)c1cncc(OC(F)(F)F)c1 [Compound 138]
		68.9	7.52	Cc1cc(C(=O)N[C@H]2CCc3cc(-n4c(-c5cccnc5N)nc5ccc(-n6cccn6)nc54)ccc32)sn1 [Compound 375]
		50.1	13.6	Nc1ncccc1-c1nc2ccc(-n3cccn3)nc2n1-c1ccc2c(c1)CC[C@@H]2NC(=O)c1ccc(C(F)(F)F)nc1 [Compound 77]
		226	30.2	Nc1ncccc1-c1nc2ccc(-n3cccn3)nc2n1-c1ccc2c(c1)CC[C@@H]2NC(=O)c1cc2n(n1)CCC2 [Compound 173]
		39.5	9.37	Nc1ncccc1-c1nc2ccc(-n3cccn3)nc2n1-c1ccc2c(c1)CC[C@@H]2NC(=O)c1ccc2c(c1)CC(=O)N2 [Compound 194]
2780	130			Nc1ncccc1-c1nc2ccc(-n3cccn3)nc2n1-c1ccc2c(c1)CC[C@@H]2NC1CCN(C(=O)C(F)F)CC1 [Compound 475]
		963	46.2	Nc1ncccc1-c1nc2ccc(-n3cccn3)nc2n1-c1ccc2c(c1)CC[C@@H]2NC(=O)c1cccnc1C(F)(F)F [Compound 110]
		82.2	8.65	Nc1ncccc1-c1nc2ccc(-n3cccn3)nc2n1-c1ccc2c(c1)CC[C@@H]2NC(=O)c1ccc(F)c(Cl)c1 [Compound 337]
		2690	56.9	Cn1nc(C(=O)N[C@H]2CCc3cc(-n4c(-c5cccnc5N)nc5ccc(-n6cccn6)nc54)ccc32)cc1C#N [Compound 214]
		15.7	4.06	COc1ccc(C(=O)N[C@H]2CCc3cc(-n4c(-c5cccnc5N)nc5ccc(-n6cccn6)nc54)ccc32)cc1F [Compound 241]
